{"source": "patent US20130064794A1", "about": "“Substituted Carbonyloxymethylphosphoramidate Compounds and Pharmaceutical Compositions for the Treatment of Viral Infections” (IDENIX PHARMACEUTICALS, INC., priority 2011, published 2013)", "type_in_all_cases": "cell-based", "key": {"[1]": {"test": "Cytotoxicity evaluation, CellTiter-Blue Cell Viability Assay", "settings": "human, Zluc cells (Huh-7-derived cell line), read-out: HCV Replicon CC50", "procedure": "(§1) For cytotoxicity evaluation, Zluc cells were treated with compound as described above, and cell viability was monitored using the CellTiter-Blue Cell Viability Assay (Promega) by adding 20 μL of the assay solution to each well. The plates were then incubated at 37° C./5% CO2 for at least 3 hours."}, "HCV genotype 1b replicon": {"tested_on": "HCV genotype 1b replicon", "test": "microbe, parasite or virus in culture", "settings": "read-out: HCV Replicon EC50", "procedure": "Huh-7-derived cell line (Zluc) that harbors an HCV genotype 1b replicon and a luciferase reporter gene was grown in Dulbecco's Modified Eagle Medium (DMEM) supplemented with 10% fetal bovine serum, 2 mM GlutaMAX, 1% MEM nonessential amino acids, 100 IU/mL penicillin, 100 μg/mL streptomycin, and 0.5 mg/mL Geneticin® (G418). For dose response testing the cells were seeded in 96-well plates at 7.5×10^3 cells per well in a volume of 50 μL, and incubated at 37° C./5% CO2. Drug solutions were made up freshly in Huh-7 media as 2× stocks. Ten additional 5-fold dilutions were prepared from these stocks in DMEM without G418. At least three hours after Zluc cells were seeded, drug treatment was initiated by adding 50 μL of drug dilutions to the plates in duplicate. […] Cells were then incubated at 37° C./5% CO2. Alternatively compounds were tested at two concentrations (10 nM and 100 nM). […] For this, media was removed from the plates via gentle tapping. Fifty microliters of ONE-glo luciferase assay reagent was added to each well. […] The EC50 values were calculated from dose response curves from the resulting best-fit equations determined by Microsoft Excel and XLfit 4.1 software."}, "[2]": {"tested_on": "Zluc cells (Huh-7-derived cell line)", "test": "Cytotoxicity evaluation, CellTiter-Blue Cell Viability Assay", "settings": "read-out: HCV Replicon CC50", "procedure": "as §1"}, "[3]": {"settings": "Zluc cells, HCV genotype 1b replicon, luciferase, 72 hours of incubation"}}, "note": "Like-named read-outs stand apart in the source and are kept apart here."}
{"smiles": "CCNC(=O)OCOP(=O)(N[C@H](C(=O)OCC)C(C)(C)C)OC[C@H]1O[C@@H](n2cnc3c(OCC)nc(N)nc32)[C@](C)(F)[C@@H]1O", "note": "(single isomer, unassigned) [Compound 21]", "values": [{"measurement": "CC50", "setting": "[1]", "result": "> 50", "unit": "µM"}, {"measurement": "EC50", "setting": "HCV genotype 1b replicon; Hepatitis C virus, 72 h", "result": "1 to 10", "unit": "µM"}]}
{"smiles": "CCOc1nc(N)nc2c1ncn2[C@@H]1O[C@H](COP(=O)(N[C@@H](C)C(=O)OC(C)C)OC(C)OC(=O)SCC)[C@@H](O)[C@@]1(C)F", "note": "(stereo partly drawn) [Compound 24]", "values": [{"measurement": "CC50", "setting": "[1]", "result": "> 50", "unit": "µM"}, {"measurement": "EC50", "setting": "HCV genotype 1b replicon; Hepatitis C virus, 72 h", "result": "< 0.1", "unit": "µM"}]}
{"smiles": "COc1nc(N)nc2c1ncn2[C@@H]1O[C@H](COP(=O)(N[C@@H](CC(C)C)C(=O)OC(C)C)OCOC(=O)OC(C)C)[C@@H](O)[C@@]1(C)O", "note": "(stereo partly drawn) [Compound 7]", "values": [{"measurement": "CC50", "setting": "[1]", "result": "> 50", "unit": "µM"}, {"measurement": "EC50", "setting": "HCV genotype 1b replicon; Hepatitis C virus, 72 h", "result": "< 0.1", "unit": "µM"}]}
{"smiles": "CCNC(=O)OCOP(=O)(N[C@H](C(=O)OCC)C(C)(C)C)OC[C@H]1O[C@@H](n2cnc3c(OCC)nc(N)nc32)[C@](C)(F)[C@@H]1O", "note": "(single isomer, unassigned) [Compound 22]", "values": [{"measurement": "CC50", "setting": "[1]", "result": "> 50", "unit": "µM"}, {"measurement": "EC50", "setting": "HCV genotype 1b replicon; Hepatitis C virus, 72 h", "result": "1 to 10", "unit": "µM"}]}
{"smiles": "COc1nc(N)nc2c1ncn2[C@@H]1O[C@H](COP(=O)(NCc2ccccc2)OC(OC(=O)OC(C)C)C(C)C)[C@@H](O)[C@@]1(C)O", "note": "(stereo partly drawn) [Compound 6]", "values": [{"measurement": "CC50", "setting": "[1]", "result": "< 50", "unit": "µM"}, {"measurement": "EC50", "setting": "HCV genotype 1b replicon; Hepatitis C virus, 72 h", "result": "< 0.1", "unit": "µM"}]}
{"smiles": "CCOC(=O)OC(C)OP(=O)(N[C@@H](C)C(=O)OC(C)C)OC[C@H]1O[C@@H](n2cnc3c(OC)nc(N)nc32)[C@](C)(F)[C@@H]1O", "note": "(single isomer, unassigned) [Compound 17]", "values": [{"measurement": "CC50", "setting": "[2]", "result": "> 50", "unit": "µM"}, {"measurement": "EC50", "setting": "HCV genotype 1b replicon; [3]", "result": "< 0.1", "unit": "µM"}]}
{"smiles": "C[C@@]1(O)[C@H](O)[C@@H](COP(=O)(O)NCc2ccccc2)O[C@H]1n1cnc2c(=O)[nH]c(N)nc21", "note": "[Compound 1]", "values": [{"measurement": "CC50", "setting": "[1]", "result": "> 50", "unit": "µM"}, {"measurement": "EC50", "setting": "HCV genotype 1b replicon; Hepatitis C virus, 72 h", "result": "0.1 to 1", "unit": "µM"}]}
{"smiles": "CC(C)(C)C(=O)OCOP(=O)(NCc1ccccc1)OC[C@H]1O[C@@H](n2cnc3c(=O)[nH]c(N)nc32)[C@](C)(O)[C@@H]1O", "note": "(stereo partly drawn) [Compound 2]", "values": [{"measurement": "CC50", "setting": "[1]", "result": "> 50", "unit": "µM"}, {"measurement": "EC50", "setting": "HCV genotype 1b replicon; Hepatitis C virus, 72 h", "result": "< 0.1", "unit": "µM"}]}
{"smiles": "CCOC(=O)OC(C)OP(=O)(N[C@@H](C)C(=O)OC(C)C)OC[C@H]1O[C@@H](n2cnc3c(OC)nc(N)nc32)[C@](C)(F)[C@@H]1O", "note": "(single isomer, unassigned) [Compound 16]", "values": [{"measurement": "CC50", "setting": "[2]", "result": "> 50", "unit": "µM"}, {"measurement": "EC50", "setting": "HCV genotype 1b replicon; [3]", "result": "< 0.1", "unit": "µM"}]}
